In brackets after ≈: the same amount, converted by molar mass.
Tests used:
[1] = Antiproliferative activity against mouse Colon 26-L5 cells by MTT assay; type: functional, cell-based
[2] = system: HT-1080; test: Antiproliferative activity against human HT1080 cells by MTT assay; type: functional, cell-based

SMILES | EC50 [1] [µg/mL] | EC50 [2] [µg/mL]
C=C1[C@@H](OC(C)=O)CC[C@@]2(C)C[C@H](OC(C)=O)C3=C(C)C[C@H](OC(=O)[C@@H](C)CC)[C@@H]([C@@H](OC(C)=O)[C@H]12)C3(C)C | 84.1 (≈ 154 µM) | 84.9 (≈ 155 µM)
COc1cc(C[C@@H](CO)[C@H](CO)Cc2ccc(O)c(OC)c2)ccc1O [(+)-SECOISOLARICIRESINOL] | 60.2 (≈ 166 µM) | 5.9 (≈ 16.3 µM)
COc1cc([C@H]2c3cc(O)c(OC)cc3C[C@H]3C(=O)OC[C@H]23)ccc1O [ALPHA-CONIDENDRIN] | > 100 | > 100
O=c1[nH]cc(F)c(=O)[nH]1 [FLUOROURACIL] | 0.07 (≈ 0.538 µM) | 0.29 (≈ 2.23 µM)
C=C1[C@@H](OC(C)=O)CC[C@@]2(C)C[C@H](O)C3=C(C)C[C@H](OC(=O)[C@@H](C)CC)[C@@H]([C@@H](OC(C)=O)[C@H]12)C3(C)C [HONGDOUSHAN A] | 40.1 (≈ 79.5 µM) | 61 (≈ 121 µM)
C=C1[C@@H](OC(C)=O)CC[C@@]2(C)C[C@H](O)C3=C(C)C[C@H](OC(=O)CC)[C@@H]([C@@H](OC(C)=O)[C@H]12)C3(C)C [HONGDOUSHAN B] | 70.4 (≈ 148 µM) | > 100
C=C1[C@@H](O)CC[C@@]2(C)C[C@H](O)C3=C(C)C[C@H](OC(=O)[C@@H](C)CC)[C@@H]([C@@H](OC(C)=O)[C@H]12)C3(C)C [HONGDOUSHAN C] | 3.8 (≈ 8.21 µM) | 61.1 (≈ 132 µM)
C=C1[C@@H](OC(C)=O)CC[C@]2(C)[C@@H]1C[C@@H]1C[C@H](OC(C)=O)C(C)=C([C@@H](OC(C)=O)[C@@H]2OC(C)=O)C1(C)C [TAXUSIN] | 51.7 (≈ 102 µM) | 61.4 (≈ 122 µM)
CC(=O)O[C@H]1C[C@]2(C(C)(C)O)C(=C1C)[C@@H](O)[C@@H](OC(=O)c1ccccc1)[C@]1(C)[C@@H](OC(C)=O)C[C@H](O)[C@@]3(OC(C)=O)CO[C@H]2[C@H]31 [TAXUYUNNANINE E] | > 100 | > 100

Source: ChEMBL document CHEMBL1150140, “Three new C-14 oxygenated taxanes from the wood of Taxus yunnanensis” (J Nat Prod, 2002)
